Results: patent publication US20030095958A1, “Inhibitors of bace” (priority 2001, published 2003)

These compounds were tested against BACE (Homo sapiens, UniProt P56817) (assay: Ki Determination for the Inhibition of BACE (FS-1 peptide fluorescence cleavage assay)). Conditions: apparent Ki; 50 nM BACE, 10 μM FS-1 substrate, 0.1M sodium acetate pH 4.5.
BACE, sequence (P56817 46-501): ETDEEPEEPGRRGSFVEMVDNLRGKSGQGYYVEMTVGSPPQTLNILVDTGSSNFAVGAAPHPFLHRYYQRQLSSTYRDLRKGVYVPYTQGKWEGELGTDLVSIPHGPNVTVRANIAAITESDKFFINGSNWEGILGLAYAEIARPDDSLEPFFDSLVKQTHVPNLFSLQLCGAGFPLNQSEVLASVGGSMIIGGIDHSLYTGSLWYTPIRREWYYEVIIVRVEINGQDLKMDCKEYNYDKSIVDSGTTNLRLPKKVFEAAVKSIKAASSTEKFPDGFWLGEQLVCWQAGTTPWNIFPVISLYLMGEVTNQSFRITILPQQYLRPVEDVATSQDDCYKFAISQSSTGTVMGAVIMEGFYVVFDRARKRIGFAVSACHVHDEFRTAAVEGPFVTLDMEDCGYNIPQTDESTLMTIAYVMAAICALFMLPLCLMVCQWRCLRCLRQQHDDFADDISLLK
Type: biochemical
Method in brief: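 Human BACE (50 nM) was preincubated 15 min at room temperature with compound (2% DMSO) in 0.1 M sodium acetate pH 4.5, then 10 μM FS-1 peptide was added. Cleavage was followed by fluorescence (ex 355/em 495 nm), and apparent Ki came from fitting to the integrated competitive tight-binding inhibition equation.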
Compound `FC(F)(F)c1ccccc1COc1ccc2c(c1)c1c(n2Cc2cccc3ccccc23)CNCC1` [Compound 505, 9-Naphthalen-1-ylmethyl-6-(2-trifluoromethyl-benzyloxy)-2,3,4,9-tetrahydro-1H-b-carboline] has a Ki of less than 3 µM.
With `O=C(c1cccc2ccccc12)n1c2c(c3cc(OCc4ccc(C(F)(F)F)cc4)ccc31)CCNC2` [Compound 506, Naphthalen-1-yl-[6-(4-trifluoromethyl-benzyloxy)-1,2,3,4-tetrahydro-b-carbolin-9-yl]-methanone] the Ki was less than 3 µM.
`O=C(c1ccc2ccccc2c1)n1c2c(c3cc(OCc4cccc(C(F)(F)F)c4)ccc31)CCNC2` [Compound 507, Naphthalen-2-yl-[6-(3-trifluoromethyl-benzyloxy)-1,2,3,4-tetrahydro-b-carbolin-9-yl]-methanone] gave a Ki of less than 3 µM.
In the case of `O=C(c1cccc2ccccc12)n1c2c(c3cc(OCc4cccc(C(F)(F)F)c4)ccc31)CCNC2` [Compound 508, Naphthalen-1-yl-[6-(3-trifluoromethyl-benzyloxy)-1,2,3,4-tetrahydro-b-carbolin-9-yl]-methanone], the Ki is reported as less than 3 µM.
Work on `FC(F)(F)c1cccc(COc2ccc3c(c2)c2c(n3Cc3cccc4ccccc34)CNCC2)c1` [Compound 509, 9-Naphthalen-1-ylmethyl-6-(3-trifluoromethyl-benzyloxy)-2,3,4,9-tetrahydro-1H-b-carboline] yielded a Ki of less than 3 µM.
With `O=C(c1cccc2ccccc12)n1c2c(c3cc(OCc4cc(C(F)(F)F)ccc4Cl)ccc31)CCNC2` [Compound 510, [6-(2-Chloro-5-trifluoromethyl-benzyloxy)-1,2,3,4-tetrahydro-b-carbolin-9-yl]-naphthalen-1-yl-methanone] the Ki was less than 3 µM.
`O=C(c1ccc2ccccc2c1)n1c2c(c3cc(OCc4cc(C(F)(F)F)ccc4Cl)ccc31)CCNC2` [Compound 511, [6-(2-Chloro-5-trifluoromethyl-benzyloxy)-1,2,3,4-tetrahydro-b-carbolin-9-yl]-naphthalen-2-yl-methanone] was tested, and the Ki was less than 3 µM.
Compound `FC(F)Oc1ccc(COc2ccc3c(c2)c2c(n3Cc3cccc4ccccc34)CNCC2)cc1` [Compound 512, 6-(4-Difluoromethoxy-benzyloxy)-9-naphthalen-1-ylmethyl-2,3,4,9-tetrahydro-1H-b-carboline] has a Ki of less than 3 µM.
For `FC(F)Oc1ccc(COc2ccc3c(c2)c2c(n3Cc3ccc4ccccc4c3)CNCC2)cc1` [Compound 513, 6-(4-Difluoromethoxy-benzyloxy)-9-naphthalen-2-ylmethyl-2,3,4,9-tetrahydro-1H-b-carboline], the Ki was less than 3 µM.
Compound `O=C(c1cccc2ccccc12)n1c2c(c3cc(OCc4ccc(OC(F)F)cc4)ccc31)CCNC2` [Compound 514, [6-(4-Difluoromethoxy-benzyloxy)-1,2,3,4-tetrahydro-b-carbolin-9-yl]-naphthalen-1-yl-methanone] has a Ki of less than 3 µM.
In the case of `O=C(c1ccc2ccccc2c1)n1c2c(c3cc(OCc4ccc(OC(F)F)cc4)ccc31)CCNC2` [Compound 515, [6-(4-Difluoromethoxy-benzyloxy)-1,2,3,4-tetrahydro-b-carbolin-9-yl]-naphthalen-2-yl-methanone], the Ki is reported as less than 3 µM.
For `FC(F)Oc1ccccc1COc1ccc2c(c1)c1c(n2Cc2ccc3ccccc3c2)CNCC1` [Compound 516, 6-(2-Difluoromethoxy-benzyloxy)-9-naphthalen-2-ylmethyl-2,3,4,9-tetrahydro-1H-b-carboline], the Ki was less than 3 µM.
In the case of `O=C(c1cccc2ccccc12)n1c2c(c3cc(OCc4cc(C(F)(F)F)ccc4C(F)(F)F)ccc31)CCNC2` [Compound 517, [6-(2,5-Bis-trifluoromethyl-benzyloxy)-1,2,3,4-tetrahydro-b-carbolin-9-yl]-naphthalen-1-yl-methanone], the Ki is reported as less than 3 µM.
For `FC(F)Oc1ccccc1COc1ccc2c(c1)c1c(n2Cc2cccc3ccccc23)CNCC1` [Compound 518, 6-(2-Difluoromethoxy-benzyloxy)-9-naphthalen-1-ylmethyl-2,3,4,9-tetrahydro-1H-b-carboline], the Ki was less than 3 µM.
Compound `c1ccc2cc(COc3ccc4c(c3)c3c(n4Cc4ccc5ccccc5c4)CNCC3)ccc2c1` [Compound 519, 6-(Naphthalen-2-ylmethoxy)-9-naphthalen-2-ylmethyl-2,3,4,9-tetrahydro-1H-b-carboline] has a Ki of less than 3 µM.
In the case of `Ic1ccccc1COc1ccc2c(c1)c1c(n2Cc2cccc3ccccc23)CNCC1` [Compound 520, 6-(2-Iodo-benzyloxy)-9-naphthalen-1-ylmethyl-2,3,4,9-tetrahydro-1H-b-carboline], the Ki is reported as less than 3 µM.
`Cc1c(COc2ccc3c(c2)c2c(n3Cc3cccc4ccccc34)CNCC2)cccc1C(F)(F)F` [Compound 521, 6-(2-Methyl-3-trifluoromethyl-benzyloxy)-9-naphthalen-1-ylmethyl-2,3,4,9-tetrahydro-1H-b-carboline] gave a Ki of less than 3 µM.
In the case of `Cc1c(COc2ccc3c(c2)c2c(n3Cc3ccc4ccccc4c3)CNCC2)cccc1C(F)(F)F` [Compound 522, 6-(2-Methyl-3-trifluoromethyl-benzyloxy)-9-naphthalen-2-ylmethyl-2,3,4,9-tetrahydro-1H-b-carboline], the Ki is reported as less than 3 µM.
With `Cc1c(COc2ccc3c(c2)c2c(n3C(=O)c3cccc4ccccc34)CNCC2)cccc1C(F)(F)F` [Compound 523, [6-(2-Methyl-3-trifluoromethyl-benzyloxy)-1,2,3,4-tetrahydro-b-carbolin-9-yl]-naphthalen-1-yl-methanone] the Ki was less than 3 µM.
`Cc1c(COc2ccc3c(c2)c2c(n3C(=O)c3ccc4ccccc4c3)CNCC2)cccc1C(F)(F)F` [Compound 524, [6-(2-Methyl-3-trifluoromethyl-benzyloxy)-1,2,3,4-tetrahydro-b-carbolin-9-yl]-naphthalen-2-yl-methanone] gave a Ki of less than 3 µM.
Work on `COc1cc(COc2ccc3c(c2)c2c(n3Cc3cccc4ccccc34)CNCC2)cc(OC)c1` [Compound 525, 6-(3,5-Dimethoxy-benzyloxy)-9-naphthalen-1-ylmethyl-2,3,4,9-tetrahydro-1H-b-carboline] yielded a Ki of less than 3 µM.
`COc1cc(COc2ccc3c(c2)c2c(n3C(=O)c3cccc4ccccc34)CNCC2)cc(OC)c1` [Compound 526, [6-(3,5-Dimethoxy-benzyloxy)-1,2,3,4-tetrahydro-b-carbolin-9-yl]-naphthalen-1-yl-methanone] gave a Ki of less than 3 µM.
For `COc1cc(COc2ccc3c(c2)c2c(n3C(=O)c3ccc4ccccc4c3)CNCC2)cc(OC)c1` [Compound 527, [6-(3,5-Dimethoxy-benzyloxy)-1,2,3,4-tetrahydro-b-carbolin-9-yl]-naphthalen-2-yl-methanone], the Ki was less than 3 µM.
`O=C(c1cccc2ccccc12)n1c2c(c3cc(OCc4ccccc4I)ccc31)CCNC2` [Compound 528, [6-(2-Iodo-benzyloxy)-1,2,3,4-tetrahydro-b-carbolin-9-yl]-naphthalen-1-yl-methanone] was tested, and the Ki was less than 3 µM.
For `O=C(c1cccc2ccccc12)n1c2c(c3cc(OCc4ccccc4OC(F)F)ccc31)CCNC2` [Compound 529, [6-(2-Difluoromethoxy-benzyloxy)-1,2,3,4-tetrahydro-b-carbolin-9-yl]-naphthalen-1-yl-methanone], the Ki was less than 3 µM.
With `O=C(c1ccc2ccccc2c1)n1c2c(c3cc(OCc4ccccc4OC(F)F)ccc31)CCNC2` [Compound 530, [6-(2-Difluoromethoxy-benzyloxy)-1,2,3,4-tetrahydro-b-carbolin-9-yl]-naphthalen-2-yl-methanone] the Ki was less than 3 µM.
